# Experimental data from patent US20180305329A1, “XANTHINE COMPOUND AND USE THEREOF” (SUMITOMO CHEMICAL COMPANY, LIMITED, priority 2015, published 2018).
# Tests used:
# [1] = Spectroscopic properties: quantum efficiency (QE-1100); format: physicochemical; details: fluorescence
# Text: Quantum Efficiency (QE): QE-1100 (Otsuka Electronics Co., Ltd.)
# [2] = system: human and rat CYP3A; assay: Molecular species selectivity evaluation, overall conclusion; format: in vitro ADME; details: conclusion from Tables 2 and 3
# Experimental: (§1) A 100 mM phosphate buffer solution (pH 7.4) containing 3 μM of the compound (2) synthesized according to Example 2, 1 mM of NADPH (Wako Pure Chemical Industries, Ltd.) and 0.1% of DMSO was prepared. In each of the wells of a 96-well plate, 2 μL of each microsome from recombinant insect cell expressing different type of molecular species of CYP (CYP 2 pmol, BD Supersomes™, Nippon BD) was placed, followed by addition of 198 μL of the above-described phosphate buffer solution to start the reaction, which was incubated at 37° C. for 20 minutes. The reaction was stopped by adding 100 μL of acetonitrile (Nacalai Tesque, Inc.), and the fluorescence intensity of the obtained reaction solution was measured at the fluorescence wavelength of 520 nm with an excitation wavelength of 482 nm. A calibration curve was prepared by using the 0 μM, 0.01 μM, 0.05 μM, 0.1 μM, 0.50 μM and 1 μM solutions (100 mM phosphate buffer/acetonitrile=2/1) of the compound (1).
# [3] = target: T1, rat CYP2D1 (Rattus norvegicus, UniProt P10633); assay: Metabolism test with recombinant CYP microsomes (molecular species selectivity); format: in vitro ADME; details: rat CYP2D1 Supersomes, CYP 2 pmol; 3 μM compound (2); 1 mM NADPH; pH 7.4; 37° C., 20 minutes; mean ± SD
# T1 construct: purchased Nippon BD (BD Supersomes); host or cells: recombinant insect cells (microsomes)
# T1 sequence (P10633 1-504): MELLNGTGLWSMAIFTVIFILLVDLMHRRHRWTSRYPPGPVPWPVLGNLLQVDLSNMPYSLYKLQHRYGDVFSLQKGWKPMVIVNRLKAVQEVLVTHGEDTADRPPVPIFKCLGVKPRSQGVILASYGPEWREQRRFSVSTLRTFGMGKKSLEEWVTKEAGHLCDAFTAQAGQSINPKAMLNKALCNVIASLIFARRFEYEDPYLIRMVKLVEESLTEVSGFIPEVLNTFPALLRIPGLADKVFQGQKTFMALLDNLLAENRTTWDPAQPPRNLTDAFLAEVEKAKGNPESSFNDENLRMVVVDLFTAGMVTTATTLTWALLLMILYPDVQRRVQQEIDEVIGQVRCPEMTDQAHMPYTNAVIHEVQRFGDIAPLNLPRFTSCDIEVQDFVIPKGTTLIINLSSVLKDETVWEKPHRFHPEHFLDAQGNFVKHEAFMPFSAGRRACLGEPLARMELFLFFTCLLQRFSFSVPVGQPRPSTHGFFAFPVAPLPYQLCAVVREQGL
# Experimental: as §1
# [4] = target: T2, rat CYP3A1 (Rattus norvegicus, UniProt P04800); assay: as above; format: in vitro ADME; details: rat CYP3A1 Supersomes, CYP 2 pmol; 3 μM compound (2); 1 mM NADPH; pH 7.4; 37° C., 20 minutes; mean ± SD
# T2 construct: purchased Nippon BD (BD Supersomes); host or cells: recombinant insect cells (microsomes)
# T2 sequence (P04800 1-504): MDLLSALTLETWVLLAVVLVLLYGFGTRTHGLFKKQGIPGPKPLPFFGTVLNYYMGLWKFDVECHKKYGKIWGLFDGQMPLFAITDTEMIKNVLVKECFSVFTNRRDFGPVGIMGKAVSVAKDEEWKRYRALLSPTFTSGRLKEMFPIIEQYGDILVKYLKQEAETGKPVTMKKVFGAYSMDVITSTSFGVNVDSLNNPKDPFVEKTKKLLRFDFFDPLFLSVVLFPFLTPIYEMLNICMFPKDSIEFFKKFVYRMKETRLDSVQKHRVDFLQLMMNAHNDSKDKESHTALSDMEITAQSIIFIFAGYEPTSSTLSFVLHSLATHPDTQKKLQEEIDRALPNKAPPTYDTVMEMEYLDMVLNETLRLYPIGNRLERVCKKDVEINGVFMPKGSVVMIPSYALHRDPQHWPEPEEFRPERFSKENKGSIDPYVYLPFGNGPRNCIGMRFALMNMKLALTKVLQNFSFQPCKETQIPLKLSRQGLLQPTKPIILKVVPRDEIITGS
# Experimental: as §1
# [5] = target: T3, human CYP3A4 (Homo sapiens, UniProt P08684); assay: as above; format: in vitro ADME; details: human CYP3A4 Supersomes, CYP 2 pmol; 3 μM compound (2); 1 mM NADPH; pH 7.4; 37° C., 20 minutes; mean ± SD
# T3 construct: purchased Nippon BD (BD Supersomes); host or cells: recombinant insect cells (microsomes)
# Experimental: as §1
# [6] = target: T4, rat CYP3A2 (Rattus norvegicus, UniProt P05183); assay: as above; format: in vitro ADME; details: rat CYP3A2 Supersomes, CYP 2 pmol; 3 μM compound (2); 1 mM NADPH; pH 7.4; 37° C., 20 minutes; mean ± SD
# T4 construct: purchased Nippon BD (BD Supersomes); host or cells: recombinant insect cells (microsomes)
# T4 sequence (P05183 1-504): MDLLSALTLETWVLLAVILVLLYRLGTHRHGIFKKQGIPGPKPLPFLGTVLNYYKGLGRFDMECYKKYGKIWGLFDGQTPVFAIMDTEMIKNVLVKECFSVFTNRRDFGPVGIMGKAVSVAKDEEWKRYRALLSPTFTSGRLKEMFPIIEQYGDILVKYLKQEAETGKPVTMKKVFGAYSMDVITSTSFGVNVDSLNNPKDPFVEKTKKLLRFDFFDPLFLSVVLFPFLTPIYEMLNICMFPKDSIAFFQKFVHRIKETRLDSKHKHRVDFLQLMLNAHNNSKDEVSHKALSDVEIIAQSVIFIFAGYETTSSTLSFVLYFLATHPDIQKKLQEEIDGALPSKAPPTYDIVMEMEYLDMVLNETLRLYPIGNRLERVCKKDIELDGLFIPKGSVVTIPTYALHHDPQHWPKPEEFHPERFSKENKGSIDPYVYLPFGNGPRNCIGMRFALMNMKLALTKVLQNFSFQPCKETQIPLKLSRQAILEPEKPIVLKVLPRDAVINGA
# Experimental: as §1
# [7] = target: T5, human CYP2E1 (Homo sapiens, UniProt P05181); assay: as above; format: in vitro ADME; details: human CYP2E1 Supersomes, CYP 2 pmol; 3 μM compound (2); 1 mM NADPH; pH 7.4; 37° C., 20 minutes; mean ± SD
# T5 construct: purchased Nippon BD (BD Supersomes); host or cells: recombinant insect cells (microsomes)
# Experimental: as §1
# T5 sequence (P05181 whole entry): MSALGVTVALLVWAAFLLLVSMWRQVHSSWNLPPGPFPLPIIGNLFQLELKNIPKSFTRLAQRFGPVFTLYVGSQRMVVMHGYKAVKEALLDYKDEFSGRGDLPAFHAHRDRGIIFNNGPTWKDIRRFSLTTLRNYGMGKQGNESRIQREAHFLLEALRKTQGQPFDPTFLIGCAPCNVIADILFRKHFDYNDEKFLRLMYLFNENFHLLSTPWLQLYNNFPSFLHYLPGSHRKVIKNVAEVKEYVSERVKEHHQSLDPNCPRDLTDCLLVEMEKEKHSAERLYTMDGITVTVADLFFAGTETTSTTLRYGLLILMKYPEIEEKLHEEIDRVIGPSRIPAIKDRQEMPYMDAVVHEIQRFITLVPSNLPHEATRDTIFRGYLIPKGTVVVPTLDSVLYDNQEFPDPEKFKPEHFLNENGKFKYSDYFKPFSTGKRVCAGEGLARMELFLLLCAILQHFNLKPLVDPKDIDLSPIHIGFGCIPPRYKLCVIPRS
# T3 sequence (P08684 whole entry): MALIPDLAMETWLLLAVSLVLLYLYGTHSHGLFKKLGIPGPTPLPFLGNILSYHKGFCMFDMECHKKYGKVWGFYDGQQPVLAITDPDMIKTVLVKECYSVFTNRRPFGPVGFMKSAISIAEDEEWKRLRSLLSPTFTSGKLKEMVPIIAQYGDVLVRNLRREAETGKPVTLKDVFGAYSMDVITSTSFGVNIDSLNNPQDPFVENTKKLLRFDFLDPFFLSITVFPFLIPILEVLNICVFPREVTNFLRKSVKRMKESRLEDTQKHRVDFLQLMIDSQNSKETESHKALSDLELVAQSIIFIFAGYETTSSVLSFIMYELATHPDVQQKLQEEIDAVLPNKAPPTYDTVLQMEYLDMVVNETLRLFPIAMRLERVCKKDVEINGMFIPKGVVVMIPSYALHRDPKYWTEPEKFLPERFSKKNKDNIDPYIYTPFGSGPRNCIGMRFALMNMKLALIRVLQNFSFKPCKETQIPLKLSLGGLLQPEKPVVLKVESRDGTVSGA
Structure (SMILES),Quantum Efficiency [1] [%],CYP molecular species selectivity as substrate [2],amount of the compound (1) produced by reacting the compound (2) with CYP [3],amount of the compound (1) produced by reacting the compound (2) with CYP [4],amount of the compound (1) produced by reacting the compound (2) with CYP [5],amount of the compound (1) produced by reacting the compound (2) with CYP [6],amount of the compound (1) produced by reacting the compound (2) with CYP [7]
"COc1ccc(-c2c3ccc(=O)cc-3oc3cc(O)ccc23)c(C)c1 [Compound (1), 6-hydroxy-9-(4-methoxy-2-methylphenyl)-3H-xanthen-3-one]",85.3,–,–,–,–,–,–
"COc1ccc(-c2c3ccc(=O)cc-3oc3cc(OCc4cc(C(F)(F)F)ccc4C(F)(F)F)ccc23)c(C)c1 [Compound (2), 9-(4-methoxy-2-methylphenyl)-6-bis(2,5-trifluoromethyl)benzyloxy-3H-xanthen-3-one]",20.6,substrate specific to human and rat CYP3A,0.0151 ± 0.0081 (3) pmol/min/mg protein,0.2190 ± 0.0095 (3) pmol/min/mg protein,2.4913 ± 0.0497 (3) pmol/min/mg protein,0.0912 ± 0.0105 (3) pmol/min/mg protein,0.0038 ± 0.0052 (3) pmol/min/mg protein
